Experimental data published in ChEMBL document CHEMBL1201862, “PubChem BioAssay data set” (2004).
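Interpolation was linear, between the two tested concentrations surrounding the appropriate level; five concentrations were tested over 48 hours in 96-well plates. GI50 is the concentration that inhibits growth by half.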 Calls of active or inactive are those of the source. Rule as the data show it: active = GI50 up to about 1.1 µM and inactive = higher.

Legend:
Test in all cases: NCI tumour cell line growth inhibition, 48 h
DMS-114 = system: DMS-114
DMS-273 = system: DMS-273
HOP-18 = system: HOP-18
KM-20L2 = system: KM-20L2
LXFL 529 = system: LXFL 529
M19-MEL = system: M19-MEL
SNB-78 = system: SNB-78
XF498 = system: XF498
RXF 631 = system: RXF 631

Structure (SMILES)	GI50 (DMS-114)	GI50 (DMS-273)	GI50 (HOP-18)	GI50 (KM-20L2)	GI50 (LXFL 529)	GI50 (M19-MEL)	GI50 (SNB-78)	GI50 (XF498)	GI50 (RXF 631)
N#CCN1C(=O)c2cccc3cc([N+](=O)[O-])cc(c23)C1=O	38.7 µM (inactive)	30.7 µM (inactive)	> 100 µM (inactive)	45.2 µM (inactive)	40.1 µM (inactive)	19.8 µM (inactive)	71.6 µM (inactive)	25.8 µM (inactive)	
CN/N=C(/c1nc2ccc([N+](=O)[O-])cc2nc1O)C(O)c1ccc(C(O)/C(=N\NC)c2nc3ccc([N+](=O)[O-])cc3nc2O)cc1 (stereo not drawn)	7.16 µM (inactive)	31.4 µM (inactive)		63 µM (inactive)	20.7 µM (inactive)	> 100 µM (inactive)	> 100 µM (inactive)		21.3 µM (inactive)
COc1ccc(NC(=O)C/C(C)=N\N=C(N)N)c([N+](=O)[O-])c1	> 100 µM (inactive)	> 100 µM (inactive)	> 100 µM (inactive)	> 100 µM (inactive)	> 100 µM (inactive)	> 100 µM (inactive)	> 100 µM (inactive)	> 100 µM (inactive)	
CC(C)(C)C1CCC(O)(c2ccccc2)CC1 (stereo not drawn)	45.6 µM (inactive)	> 100 µM (inactive)	> 100 µM (inactive)	> 100 µM (inactive)	78.2 µM (inactive)	> 100 µM (inactive)	> 100 µM (inactive)	1.97 µM (inactive)	
C/C(=N\NS(=O)(=O)c1ccc(C)cc1)c1c(O)cc(C)oc1=O			> 100 µM (inactive)	> 100 µM (inactive)	> 100 µM (inactive)	> 100 µM (inactive)	> 100 µM (inactive)		
O=C(/C=C/c1ccccc1F)c1ccc([N+](=O)[O-])cc1	17.1 µM (inactive)	36.3 µM (inactive)	57.5 µM (inactive)	30.8 µM (inactive)	16.6 µM (inactive)	22.2 µM (inactive)	37.2 µM (inactive)	19.6 µM (inactive)	
C#CCNC(=O)NCCCCC(NC(C)=O)C(=O)NCc1ccccc1 (stereo not drawn)	> 100 µM (inactive)		> 100 µM (inactive)	> 100 µM (inactive)	> 100 µM (inactive)	> 100 µM (inactive)	> 100 µM (inactive)	0.101 µM (active)	> 100 µM (inactive)
CCNCCCCNCCCCNCCCCNCCCCNCC	> 100 µM (inactive)	> 49.7 µM (inactive)	> 100 µM (inactive)	> 100 µM (inactive)	> 94.8 µM (inactive)	> 100 µM (inactive)	> 100 µM (inactive)	> 32.8 µM (inactive)	
COC(=O)C(=O)CC(=O)CCn1[nH]c(=O)c(Cl)c(Cl)c1=O	> 100 µM (inactive)	> 100 µM (inactive)		> 100 µM (inactive)	> 100 µM (inactive)	> 100 µM (inactive)	> 100 µM (inactive)	> 100 µM (inactive)	
O=C1C(=O)N(c2ccc(Cl)cc2)C(=O)C(=O)C1c1nc2ccccc2o1	> 100 µM (inactive)	> 100 µM (inactive)		> 100 µM (inactive)	> 100 µM (inactive)	> 100 µM (inactive)	> 100 µM (inactive)	> 100 µM (inactive)	> 100 µM (inactive)
N=S(c1ccccc1)c1ccccc1[N+](=O)[O-] (stereo not drawn)	18.2 µM (inactive)	18.4 µM (inactive)	32.6 µM (inactive)	21 µM (inactive)	16.6 µM (inactive)	12.3 µM (inactive)	36.1 µM (inactive)	3.16 µM (inactive)	
CC1OC(OP(=O)(OCc2ccccc2)OCc2ccccc2)C(OC(=O)c2ccccc2)C(OC(=O)c2ccccc2)C1I (stereo not drawn)		53 µM (inactive)		51.2 µM (inactive)	41.8 µM (inactive)	61.5 µM (inactive)		> 100 µM (inactive)	
COC1(OC)C2(Cl)C(Cl)=C(Cl)C1(Cl)C1c3ccc(C(C)=O)c4cccc(c34)C12 (stereo not drawn)	15.9 µM (inactive)	3.89 µM (inactive)	> 100 µM (inactive)	4.53 µM (inactive)	25.6 µM (inactive)	25.6 µM (inactive)	28.3 µM (inactive)		
COc1ccc(S(=O)(=O)N[C@H](C(=O)O)c2ccccc2)cc1	> 100 µM (inactive)	> 100 µM (inactive)	> 100 µM (inactive)	> 100 µM (inactive)	> 100 µM (inactive)	> 100 µM (inactive)	> 100 µM (inactive)	> 100 µM (inactive)	
Cc1nc(N)c(-c2ccccc2)s1	> 76 µM (inactive)	39.9 µM (inactive)	> 100 µM (inactive)	> 70.8 µM (inactive)	> 100 µM (inactive)	> 100 µM (inactive)	68.4 µM (inactive)	34.6 µM (inactive)	> 100 µM (inactive)
CCCCCCN(CCCCCC)C(=O)Cc1c2n(c3ccccc13)Cc1ccccc1-2	28.6 µM (inactive)	36.9 µM (inactive)	> 100 µM (inactive)	> 100 µM (inactive)	37.4 µM (inactive)	60.3 µM (inactive)	71.8 µM (inactive)		
Cc1ccc2c(c1)-c1c3c(nn1-c1ccccc1)-c1ccccc1SC3O2 (stereo not drawn)	> 100 µM (inactive)	> 100 µM (inactive)	> 100 µM (inactive)	> 100 µM (inactive)	> 100 µM (inactive)		> 100 µM (inactive)	> 100 µM (inactive)	2.65 µM (inactive)
CC(C)c1cc2c(O)c(c1)Cc1cc(C(C)C)cc(c1O)Cc1cc(C(C)C)cc(c1O)Cc1cc(C(C)C)cc(c1O)Cc1cc(C(C)C)cc(c1O)Cc1cc(C(C)C)cc(c1O)C2	> 100 µM (inactive)	> 100 µM (inactive)		> 100 µM (inactive)	> 100 µM (inactive)	> 100 µM (inactive)	> 100 µM (inactive)	> 100 µM (inactive)	
N#Cc1cc([N+](=O)[O-])ccc1NC(=O)C(=O)C(C(=O)c1ccc2ccccc2c1)C1OCc2ccccc21 (stereo not drawn)	8.07 µM (inactive)			20.7 µM (inactive)	4.41 µM (inactive)	11.8 µM (inactive)	3.93 µM (inactive)		11.3 µM (inactive)
CCC/C(=N\NC(=S)N1CC2CCC(CC2)C1)c1ccccn1		0.00839 µM (active)	0.149 µM (active)	0.0145 µM (active)	0.0113 µM (active)		0.344 µM (active)	0.00543 µM (active)	
c1ccc2c(c1)SC(=C1Sc3ccccc3S1)S2	69.8 µM (inactive)	> 100 µM (inactive)	> 100 µM (inactive)	> 100 µM (inactive)	> 100 µM (inactive)	> 100 µM (inactive)	> 100 µM (inactive)	> 100 µM (inactive)	> 100 µM (inactive)
Cc1cc(C)nc(NS(=O)(=O)c2ccc(Nc3c4ccccc4nc4c(C(=O)N5CCN(CCO)CC5)ccc(Cl)c34)cc2)n1	72.3 µM (inactive)	> 100 µM (inactive)		60.8 µM (inactive)		76 µM (inactive)	> 100 µM (inactive)		85.5 µM (inactive)
S=c1[nH]nc(Cc2ccccc2)c(=S)[nH]1		> 100 µM (inactive)	25.4 µM (inactive)		> 100 µM (inactive)	> 100 µM (inactive)	> 100 µM (inactive)	> 100 µM (inactive)	> 100 µM (inactive)
CCN(CC)CC(O)CNc1ccc(NCC(O)CCl)c2c1C(=O)c1ccccc1C2=O (stereo not drawn)		3.33 µM (inactive)	> 10 µM (inactive)	4.68 µM (inactive)	1.85 µM (inactive)	6.82 µM (inactive)	6.7 µM (inactive)	13.4 µM (inactive)	
N#CC1(Cc2ccc(N)cc2)c2ccccc2C=CN1C(=O)c1ccccc1 (stereo not drawn)	38.8 µM (inactive)	47.1 µM (inactive)	25.2 µM (inactive)	34.1 µM (inactive)	35.8 µM (inactive)	40.1 µM (inactive)	47.9 µM (inactive)	28.9 µM (inactive)	
CCCN(CCC)C(=O)C(=O)c1c(N)[nH]n(-c2ccccc2)c1=O	> 100 µM (inactive)	> 100 µM (inactive)	> 100 µM (inactive)	> 100 µM (inactive)	66.2 µM (inactive)	> 100 µM (inactive)	> 100 µM (inactive)	> 100 µM (inactive)	> 100 µM (inactive)
CC[C@H]1CN2CCc3cc(OC)c(OC)cc3[C@@H]2C[C@@H]1C[C@H]1NCCc2c1[nH]c1ccc(O)cc21 [TUBULOSINE]	< 0.01 µM (active)	< 0.01 µM (active)	0.0454 µM (active)	0.0153 µM (active)	0.0202 µM (active)	< 0.01 µM (active)	0.0136 µM (active)	0.0188 µM (active)	
ClCCN(CC#CCCCC#CCN(CCCl)CCCl)CCCl	3.01 µM (inactive)	4 µM (inactive)	17.8 µM (inactive)	13.8 µM (inactive)	12.4 µM (inactive)	12.1 µM (inactive)	17.2 µM (inactive)		10.8 µM (inactive)
